# Measurements as given in ChEMBL document CHEMBL5046291, “Evodiamine-Inspired Topoisomerase-Histone Deacetylase Dual Inhibitors: Novel Orally Active Antitumor Agents for Leukemia Therapy” (J Med Chem, 2022).
# Activity calls are given as the source filed them. The rule behind the calls is not given here.
# Tests used:
# Histone deacetylase 2 [1] = molecular target: T1, Histone deacetylase 2 (Homo sapiens, UniProt Q92769); assay: Inhibition of recombinant full length C-terminal GST tagged human HDAC2 expressed in baculovirus infected Sf9 insect cells using Ac-Leu-Gly-Lys(Ac)-AMC as substrate preincubated for 5 mins followed by substrate addition and further incubated for 30 mins by fluorescence based microtiter plate reader assay
# T1 sequence (Q92769 whole entry): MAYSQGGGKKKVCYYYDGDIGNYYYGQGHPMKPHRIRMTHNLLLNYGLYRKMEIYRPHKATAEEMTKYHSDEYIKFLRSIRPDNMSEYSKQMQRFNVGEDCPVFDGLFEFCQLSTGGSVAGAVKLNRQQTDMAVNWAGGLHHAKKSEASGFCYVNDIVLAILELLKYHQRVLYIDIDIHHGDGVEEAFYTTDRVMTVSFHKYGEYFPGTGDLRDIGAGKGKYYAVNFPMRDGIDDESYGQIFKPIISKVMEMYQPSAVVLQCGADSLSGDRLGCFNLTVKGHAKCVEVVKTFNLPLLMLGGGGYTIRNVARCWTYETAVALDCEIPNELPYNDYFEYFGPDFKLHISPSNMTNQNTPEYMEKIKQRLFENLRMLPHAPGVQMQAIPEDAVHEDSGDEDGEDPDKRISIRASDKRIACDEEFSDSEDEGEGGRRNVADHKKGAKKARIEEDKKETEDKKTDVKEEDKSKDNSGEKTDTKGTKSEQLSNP
# [2] = molecular target: DNA topoisomerase 2-alpha (Homo sapiens) (UniProt P11388); assay: Inhibition of recombinant Top2 (unknown origin) assessed as inhibition of relaxation of supercoiled pBR322 plasmid DNA at 50 uM incubated for 15 mins by ethidium bromide staining based agarose gel electrophoresis analysis
# Chain of DNA topoisomerase 2-alpha (Homo sapiens) (P11388 whole entry): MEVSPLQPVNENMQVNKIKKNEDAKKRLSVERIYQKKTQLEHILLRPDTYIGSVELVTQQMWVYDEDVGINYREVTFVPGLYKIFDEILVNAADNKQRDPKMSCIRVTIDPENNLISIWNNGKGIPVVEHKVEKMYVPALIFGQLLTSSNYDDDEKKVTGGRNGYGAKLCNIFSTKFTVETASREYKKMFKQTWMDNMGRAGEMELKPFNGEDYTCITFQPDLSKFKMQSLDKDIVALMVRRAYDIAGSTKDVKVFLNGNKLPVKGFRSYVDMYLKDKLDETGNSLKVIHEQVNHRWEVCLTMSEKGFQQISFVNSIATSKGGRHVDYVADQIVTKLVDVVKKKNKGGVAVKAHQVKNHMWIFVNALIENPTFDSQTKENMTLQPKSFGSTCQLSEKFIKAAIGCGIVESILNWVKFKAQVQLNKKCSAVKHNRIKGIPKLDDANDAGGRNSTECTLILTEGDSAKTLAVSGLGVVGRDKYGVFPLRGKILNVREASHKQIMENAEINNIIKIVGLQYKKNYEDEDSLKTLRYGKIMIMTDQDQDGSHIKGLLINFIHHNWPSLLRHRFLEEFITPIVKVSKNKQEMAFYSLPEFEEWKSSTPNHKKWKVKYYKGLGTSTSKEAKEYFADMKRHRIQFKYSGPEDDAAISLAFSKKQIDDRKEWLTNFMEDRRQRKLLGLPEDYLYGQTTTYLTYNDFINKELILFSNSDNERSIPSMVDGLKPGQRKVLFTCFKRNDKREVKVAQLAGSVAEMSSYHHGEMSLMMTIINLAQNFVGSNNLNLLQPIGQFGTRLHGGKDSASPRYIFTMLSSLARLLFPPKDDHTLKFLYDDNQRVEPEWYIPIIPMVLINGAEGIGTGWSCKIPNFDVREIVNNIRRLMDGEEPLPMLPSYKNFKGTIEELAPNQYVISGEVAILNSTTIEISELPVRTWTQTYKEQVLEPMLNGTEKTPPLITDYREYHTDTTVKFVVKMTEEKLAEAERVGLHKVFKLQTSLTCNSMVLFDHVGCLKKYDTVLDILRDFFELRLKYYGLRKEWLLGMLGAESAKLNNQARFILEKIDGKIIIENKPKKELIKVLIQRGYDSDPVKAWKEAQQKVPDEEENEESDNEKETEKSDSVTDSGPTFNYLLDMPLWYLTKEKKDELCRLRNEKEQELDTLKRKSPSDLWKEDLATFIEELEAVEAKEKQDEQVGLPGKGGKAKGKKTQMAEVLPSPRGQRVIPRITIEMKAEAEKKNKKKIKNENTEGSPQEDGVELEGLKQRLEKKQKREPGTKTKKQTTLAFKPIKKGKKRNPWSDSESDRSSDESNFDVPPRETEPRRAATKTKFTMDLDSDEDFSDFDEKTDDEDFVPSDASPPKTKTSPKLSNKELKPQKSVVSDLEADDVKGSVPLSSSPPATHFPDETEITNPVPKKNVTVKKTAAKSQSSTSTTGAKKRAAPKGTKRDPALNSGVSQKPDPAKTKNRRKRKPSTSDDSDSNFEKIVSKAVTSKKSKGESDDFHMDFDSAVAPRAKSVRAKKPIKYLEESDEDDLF
# HEL [3] = assay: Antitumor activity against HEL cells xenografted in BALB/C mouse assessed as tumor growth inhibition at 5 mg/kg, po qd for 14 days consecutively by caliper method relative to control; format: functional, Homo sapiens; details: 336 h, time 14 day, read-out: TGI
# HepG2 = assay: Antiproliferative activity against human HepG2 cells assessed as cell growth inhibition incubated for 8 hrs by CCK8 assay; format: functional, cell-based; details: HepG2, 8 h
# HEL [4] = assay: Induction of cell cycle arrest in HEL cells assessed as change in S-phase ratio at 0.5 uM incubated for 48 hrs by PI staining based flow cytometry relative to control; format: functional, Homo sapiens
# HEL [5] = assay: Induction of apoptosis in HEL cells assessed as apoptotic cells at 0.1 uM incubated for 48 hrs by annexin V-FITC/PI staining based flow cytometry (reference value: 3.95%); format: functional, Homo sapiens
# Histone deacetylase 1 [6] = molecular target: T2, Histone deacetylase 1 (Homo sapiens, UniProt Q13547); assay: Inhibition of HDAC1 in HEL cells assessed as increase in acetyl-H3 levels at 20 to 100 nM incubated for 24 hrs by western blot analysis; format: cell-based; details: dose 20-100 nM
# T2 sequence (Q13547 whole entry): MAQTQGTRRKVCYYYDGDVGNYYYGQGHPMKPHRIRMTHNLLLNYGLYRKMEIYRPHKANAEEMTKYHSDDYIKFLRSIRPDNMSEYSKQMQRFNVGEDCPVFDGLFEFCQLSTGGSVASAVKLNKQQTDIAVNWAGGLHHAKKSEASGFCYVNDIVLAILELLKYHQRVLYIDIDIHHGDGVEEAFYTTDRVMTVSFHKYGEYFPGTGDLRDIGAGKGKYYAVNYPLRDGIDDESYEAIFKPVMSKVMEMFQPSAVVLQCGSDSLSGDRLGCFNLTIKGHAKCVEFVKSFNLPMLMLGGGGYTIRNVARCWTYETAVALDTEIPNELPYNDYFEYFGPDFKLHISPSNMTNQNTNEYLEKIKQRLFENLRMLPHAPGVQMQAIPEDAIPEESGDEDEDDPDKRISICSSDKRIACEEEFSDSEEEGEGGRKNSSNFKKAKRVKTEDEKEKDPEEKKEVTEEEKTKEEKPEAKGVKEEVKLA
# [7] = molecular target: T3, DNA topoisomerase 1 (Homo sapiens) (UniProt P11387); assay: Inhibition of recombinant Top1 (unknown origin) assessed as inhibition of relaxation of supercoiled pBR322 plasmid DNA at 50 uM incubated for 15 mins by ethidium bromide staining based agarose gel electrophoresis analysis
# T3 sequence (whole entry): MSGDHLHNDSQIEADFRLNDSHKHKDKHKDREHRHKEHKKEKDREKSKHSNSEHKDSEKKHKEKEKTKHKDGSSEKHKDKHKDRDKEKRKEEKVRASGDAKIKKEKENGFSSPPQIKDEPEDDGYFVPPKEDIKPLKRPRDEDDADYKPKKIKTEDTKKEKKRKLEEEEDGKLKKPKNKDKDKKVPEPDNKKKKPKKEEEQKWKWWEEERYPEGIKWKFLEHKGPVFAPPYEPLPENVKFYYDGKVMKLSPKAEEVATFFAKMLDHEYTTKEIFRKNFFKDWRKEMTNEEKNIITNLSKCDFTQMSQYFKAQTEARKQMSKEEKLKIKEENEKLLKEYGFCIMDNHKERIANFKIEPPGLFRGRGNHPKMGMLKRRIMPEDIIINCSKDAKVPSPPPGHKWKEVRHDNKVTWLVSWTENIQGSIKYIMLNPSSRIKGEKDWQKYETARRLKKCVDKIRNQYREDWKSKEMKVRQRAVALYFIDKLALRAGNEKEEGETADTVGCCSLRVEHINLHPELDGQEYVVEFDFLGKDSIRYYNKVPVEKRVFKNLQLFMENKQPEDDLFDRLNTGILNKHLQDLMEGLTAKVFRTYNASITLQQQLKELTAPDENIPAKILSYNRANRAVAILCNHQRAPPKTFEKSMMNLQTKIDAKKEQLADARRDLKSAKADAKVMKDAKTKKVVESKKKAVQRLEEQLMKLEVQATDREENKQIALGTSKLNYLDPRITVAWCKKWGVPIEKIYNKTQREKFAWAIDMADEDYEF
# Histone deacetylase 2 [8] = molecular target: T1, Histone deacetylase 2; assay: In vivo inhibition of HDAC2 in HEL cells xenografted in BALB/C mouse assessed as upregulation of acetyl-H4 levels at 5 to 10 mg/kg by immunohistochemical staining method; format: functional, organism-based; details: dose 5-10 mg/kg
# Histone deacetylase 1 [9] = molecular target: T2, Histone deacetylase 1; assay: Inhibition of full-length recombinant human HDAC1 expressed in Baculovirus expression system using Ac-Leu-Gly-Lys(Ac)-AMC as substrate preincubated for 5 mins followed by substrate addition and further incubated for 30 mins by fluorescence based microtiter plate reader assay
# [10] = Metabolic stability in ICR mouse liver microsome assessed as clearance; format: ADME; details: microsomes
# HEL [11] = assay: Induction of apoptosis in HEL cells assessed as apoptotic cells at 0.5 uM incubated for 48 hrs by annexin V-FITC/PI staining based flow cytometry (reference value: 4.23%); format: functional, Homo sapiens
# [12] = Toxicity in BALB/C mouse xenografted with HEL cells assessed as change in body weight at 5 to 10 mg/kg, po qd for 14 days consecutively; format: organism-based; details: in vivo, 336 h, dose 5-10 mg/kg, time 14 day
# [13] = molecular target: DNA topoisomerase 2-alpha (Homo sapiens) (UniProt P11388); assay: Inhibition of recombinant Top2 (unknown origin) assessed as inhibition of relaxation of supercoiled pBR322 plasmid DNA at 100 uM incubated for 15 mins by ethidium bromide staining based agarose gel electrophoresis analysis
# [14] = molecular target: Histone deacetylase (Homo sapiens) (UniProt Q13547+O15379+Q9UBN7+Q92769+Q9UQL6+Q8WUI4+Q9BY41+Q96DB2+P56524+Q9UKV0+Q969S8); assay: In vivo inhibition of HDAC in HEL cells xenografted in BALB/C mouse assessed as upregulation of caspase-9 levels at 5 to 10 mg/kg by immunohistochemical staining method; format: functional, organism-based; details: dose 5-10 mg/kg
# HCT-116 = assay: Antiproliferative activity against human HCT-116 cells assessed as cell growth inhibition incubated for 8 hrs by CCK8 assay; format: functional, cell-based; details: HCT-116, 8 h
# HEL [15] = assay: Antiproliferative activity against HEL cells assessed as cell growth inhibition incubated for 8 hrs by CCK8 assay; format: functional, cell-based; details: Homo sapiens
# HEL [16] = assay: Induction of cell cycle arrest in HEL cells assessed as change in S-phase ratio at 0.1 uM incubated for 48 hrs by PI staining based flow cytometry relative to control; format: functional, Homo sapiens
# K562 = assay: Antiproliferative activity against human K562 cells assessed as cell growth inhibition incubated for 8 hrs by CCK8 assay; format: functional, cell-based; details: K562, 8 h
# A549 = assay: Antiproliferative activity against human A549 cells assessed as cell growth inhibition incubated for 8 hrs by CCK8 assay; format: functional, cell-based; details: A549, 8 h
# Histone deacetylase 2 [17] = molecular target: T1, Histone deacetylase 2; assay: Inhibition of HDAC2 in HEL cells assessed as increase in acetyl-H4 levels at 20 to 100 nM incubated for 24 hrs by western blot analysis; format: cell-based; details: dose 20-100 nM
# Histone deacetylase 3 = Histone deacetylase 3 (Homo sapiens, UniProt O15379); assay: Inhibition of recombinant His-tagged human HDAC3 expressed in baculovirus infected insect cells using Ac-Leu-Gly-Lys(Ac)-AMC as substrate preincubated for 5 mins followed by substrate addition and further incubated for 30 mins by fluorescence based microtiter plate reader assay
# Chain of Histone deacetylase 3 (O15379 whole entry): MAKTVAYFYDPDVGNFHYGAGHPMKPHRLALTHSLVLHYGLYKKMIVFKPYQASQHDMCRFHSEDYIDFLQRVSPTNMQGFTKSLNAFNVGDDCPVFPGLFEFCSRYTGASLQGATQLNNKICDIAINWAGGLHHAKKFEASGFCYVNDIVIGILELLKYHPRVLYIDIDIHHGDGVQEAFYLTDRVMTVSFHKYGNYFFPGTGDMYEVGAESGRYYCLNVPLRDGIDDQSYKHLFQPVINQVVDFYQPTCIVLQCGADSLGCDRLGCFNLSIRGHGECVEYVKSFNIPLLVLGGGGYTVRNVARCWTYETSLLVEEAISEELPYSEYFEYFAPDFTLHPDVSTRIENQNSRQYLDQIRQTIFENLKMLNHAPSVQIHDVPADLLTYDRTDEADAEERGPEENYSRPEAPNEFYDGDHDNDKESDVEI
structure (smiles),measurement,setting,value
CN1c2ccc(F)cc2C(=O)N2CCc3c([nH]c4ccc(OCc5ccc(/C=C/C(=O)NO)cc5)cc34)C21 (configuration not stated),IC50,Histone deacetylase 2 [1],140 nM
same,inhibition,[2],Active
same,inhibition in vivo at 5 mg/kg,HEL [3],41.4%
same,IC50,HepG2,260 nM
same,Activity,HEL [4],25.8%
same,Activity,HEL [5],56.02%
same,inhibition,Histone deacetylase 1 [6],Active
same,inhibition,[7],Active
same,inhibition,Histone deacetylase 2 [8],Active
same,IC50,Histone deacetylase 1 [9],36 nM
same,CLH,[10],173 mL/min/kg
same,Activity,HEL [11],76.45%
same,Activity,[12],Non-Toxic
same,inhibition,[13],Active
same,inhibition,[14],Active
same,IC50,HCT-116,210 nM
same,IC50,HEL [15],29 nM
same,Activity,HEL [16],15.4%
same,IC50,K562,350 nM
same,IC50,A549,680 nM
same,inhibition,Histone deacetylase 2 [17],Active
same,IC50,Histone deacetylase 3,59 nM
